Test results from US20250241990A1, “THERAPEUTIC AGENT” (priority 2022, published 2025).

Test system: E. coli CFT073
Test: Irf3−/− mice infected with E. coli CFT073 by intravesical instillation; genetic model of acute pyelonephritis and urosepsis
Assay type: in vivo
Settings: for bacterial growth in urine: at day 21 and 42; for long term protection against infection and inflammation: daily i.p. treatment for 7 days, follow-up to day 42, FIG. 2; for urine neutrophil numbers: long-term follow-up (day 21 and 42)
Method: Irf3^−/− mice were infected with E. coli CFT073 (50 μl of 2.109 cfu/ml) by intravesical instillation. Intraperitoneal treatment was administered daily, starting 6 hours after infection and for 7 days. Mice were treated with recombinant NIpD protein (105 μg in 100 μl) or IL-1RA (Anakinra, 1 mg/kg, 100 μl). Control mice received PBS. Urine sampling for bacterial and neutrophil counts were done on day 1, 3, 5 and 7 in one group of animals (those sacrificed on day 7), and on day 1, 3, 5, 7, 21 and 42 in others.
Animals were sacrificed under anesthesia; kidneys and bladders were asceptically removed and in the case of bladders, macroscopic pathology was documented by photography. Tissues were fixed with 4% paraformaldehyde or frozen for sectioning and RNA extraction. Viable counts in homogenized tissues (Stomacher 80, Seward Medical) were determined on TSA (37° C., overnight). Urine samples were collected prior to and at regular times after infection and quantitatively cultured. Neutrophils in uncentrifuged urine were counted, using a hemocytometer.

## IL-1RA: interleukin-1 receptor antagonist (IL-1 RA), anakinra
  bacterial growth in urine: no bacterial growth in urine
  long term protection against infection and inflammation: long term protection
  urine neutrophil numbers: low urine neutrophil numbers

B1: NIpD: recombinant NIpD protein; bacterial protein, e.g. from E. coli 83972; may comprise or consist of SEQ ID NO: 1 (protein, listed as Escherichia coli)
chain: MSAGSPKFTVRRIAALSLVSLWLAGCSDTSNPPAPVSSVNGNAPANTNSGMLITPPPKMGTTSTAQQPQIQPVQQPQIQATQQPQIQPMQPVAQQPVQMENGRIVYNRQYGNIPKGSYSGSTYTVKKGDTLFYIAWITGNDFRDLAQRNNIQAPYALNVGQTLQVGNASGTPITGGNAITQADAAEQGVVIKPAQNSTVAVASQPTITYSESSGEQSANKMLPNNKPTATTVTAPVTVPTASTTEPIVSSTSTSTPISTWRWPTEGKVIETFGASEGGNKGIDIAGSKGQAIIATADGRVVYAGNALRGYGNLIIIKHNDDYLSAYAHNDTMLVREQQEVKAGQKIATMGSTGTSSTRLHFEIRYKGKSVNPLRYLPQR
  bacterial growth in urine: no bacterial growth in urine
  long term protection against infection and inflammation: long term protection
  urine neutrophil numbers: low urine neutrophil numbers
